Measurements: ChEMBL document CHEMBL4043139, “Fluoro and pentafluorothio analogs of the antitumoral curcuminoid EF24 with superior antiangiogenic and vascular-disruptive effects” (Bioorg Med Chem, 2017)

Assays:
518A2 = test: Cytotoxicity against human 518A2 cells after 72 hrs by MTT assay; assay type: functional, cell-based; conditions: for IC50: 518A2, 72 h
HT-29 = test: Cytotoxicity against human HT-29 cells after 72 hrs by MTT assay; assay type: functional, cell-based; conditions: for IC50: HT-29, 72 h
HCT-116 = test: Cytotoxicity against human HCT116 cells after 72 hrs by MTT assay; assay type: functional, cell-based; conditions: for IC50: HCT-116, 72 h
DLD-1 = test: Cytotoxicity against human DLD1 cells after 72 hrs by MTT assay; assay type: functional, cell-based; conditions: for IC50: DLD-1, 72 h
PANC-1 = test: Cytotoxicity against human PANC1 cells after 72 hrs by MTT assay; assay type: functional, cell-based; conditions: for IC50: PANC-1, 72 h
[1] = (§1) Cytotoxicity against human KB-V1/Vbl cells after 72 hrs by MTT assay; assay type: functional, cell-based
KB-V1/Vbl = test: as §1; assay type: functional, cell-based
[2] = (§2) Cytotoxicity against human MCF7/Topo cells after 72 hrs by MTT assay; assay type: functional, cell-based
MCF7/Topo = test: as §2; assay type: functional, cell-based
[3] = (§3) Cytotoxicity against human U87 cells after 72 hrs by MTT assay; assay type: functional, cell-based, U-87MG ATCC; conditions: U-87 MG
U-87MG ATCC = test: as §3; assay type: functional, cell-based

| Structure (SMILES) | Activity (518A2) | IC50 (518A2) [nM] | Activity (HT-29) | IC50 (HT-29) [nM] | Activity (HCT-116) | IC50 (HCT-116) [nM] | Activity (DLD-1) | IC50 (DLD-1) [nM] | Activity (PANC-1) | IC50 (PANC-1) [nM] | IC50 [1] [nM] | Activity (KB-V1/Vbl) | IC50 [2] [nM] | Activity (MCF7/Topo) | IC50 [3] [nM] | Activity (U-87MG ATCC) |
| --- | --- | --- | --- | --- | --- | --- | --- | --- | --- | --- | --- | --- | --- | --- | --- | --- |
| O=C1/C(=C/c2ccc(F)c(F)c2)CSC/C1=C\c1ccc(F)c(F)c1 | Dose-dependent effect | 1500 | Dose-dependent effect | 1300 | Dose-dependent effect | 2000 | Dose-dependent effect | 1800 | Dose-dependent effect | 2100 | 760 | Dose-dependent effect | 1600 | Dose-dependent effect | 2300 | Dose-dependent effect |
| CCN1C/C(=C\c2ccc(F)cc2F)C(=O)/C(=C/c2ccc(F)cc2F)C1 | Dose-dependent effect | 2400 | Dose-dependent effect | 3100 | Dose-dependent effect | 2000 | Dose-dependent effect | 960 | Dose-dependent effect | 2300 | 1200 | Dose-dependent effect | 1800 | Dose-dependent effect | – | – |
| CCN1C/C(=C\c2cc(F)cc(F)c2)C(=O)/C(=C/c2cc(F)cc(F)c2)C1 | Dose-dependent effect | 3300 | Dose-dependent effect | 2100 | Dose-dependent effect | 550 | Dose-dependent effect | 640 | Dose-dependent effect | 1100 | 2700 | Dose-dependent effect | 1000 | Dose-dependent effect | – | – |
| CCN1C/C(=C\c2ccccc2F)C(=O)/C(=C/c2ccccc2F)C1 | Dose-dependent effect | 1800 | Dose-dependent effect | 5200 | Dose-dependent effect | 1800 | Dose-dependent effect | 930 | Dose-dependent effect | 1700 | 3100 | Dose-dependent effect | 2000 | Dose-dependent effect | – | – |
| CN1C/C(=C\c2ccc(F)c(F)c2)C(=O)/C(=C/c2ccc(F)c(F)c2)C1 | Dose-dependent effect | 1500 | Dose-dependent effect | 1500 | Dose-dependent effect | 510 | Dose-dependent effect | 470 | Dose-dependent effect | 1500 | 990 | Dose-dependent effect | 1300 | Dose-dependent effect | – | – |
| CN1C/C(=C\c2ccccc2F)C(=O)/C(=C/c2ccccc2F)C1 | Dose-dependent effect | 1800 | Dose-dependent effect | 2200 | Dose-dependent effect | 1300 | Dose-dependent effect | 810 | Dose-dependent effect | 2200 | 1800 | Dose-dependent effect | 2300 | Dose-dependent effect | – | – |
| CCN1C/C(=C\c2cc(F)c(F)cc2F)C(=O)/C(=C/c2cc(F)c(F)cc2F)C1 | Dose-dependent effect | 1500 | Dose-dependent effect | 690 | Dose-dependent effect | 510 | Dose-dependent effect | 520 | Dose-dependent effect | 830 | 640 | Dose-dependent effect | 1100 | Dose-dependent effect | – | – |
| O=C1/C(=C/c2ccc(S(F)(F)(F)(F)F)cc2)CSC/C1=C\c1ccc(S(F)(F)(F)(F)F)cc1 | Dose-dependent effect | 850 | Dose-dependent effect | 980 | Dose-dependent effect | 640 | Dose-dependent effect | 750 | Dose-dependent effect | 840 | 570 | Dose-dependent effect | 760 | Dose-dependent effect | 2100 | Dose-dependent effect |
| O=C1/C(=C/c2ccc(S(F)(F)(F)(F)F)cc2)CCC/C1=C\c1ccc(S(F)(F)(F)(F)F)cc1 | Dose-dependent effect | 1800 | Dose-dependent effect | 1100 | Dose-dependent effect | 710 | Dose-dependent effect | 860 | Dose-dependent effect | 2000 | 1900 | Dose-dependent effect | 1800 | Dose-dependent effect | 3200 | Dose-dependent effect |
| O=C(/C=C/c1ccc(S(F)(F)(F)(F)F)cc1)/C=C/c1ccc(S(F)(F)(F)(F)F)cc1 | Dose-dependent effect | 4400 | Dose-dependent effect | 1800 | Dose-dependent effect | 1000 | Dose-dependent effect | 3200 | Dose-dependent effect | 3100 | 3600 | Dose-dependent effect | 3400 | Dose-dependent effect | 8700 | Dose-dependent effect |
| CCN1C/C(=C\c2c(F)cc(F)cc2F)C(=O)/C(=C/c2c(F)cc(F)cc2F)C1 | Dose-dependent effect | 2000 | Dose-dependent effect | 2000 | Dose-dependent effect | 1100 | Dose-dependent effect | 1400 | Dose-dependent effect | 1300 | 1200 | Dose-dependent effect | 2100 | Dose-dependent effect | – | – |
